Measured values taken from patent US8207172B2 (Bayer Intellectual Property GmbH, priority 2004, dated 2012).

Key:
[1] = system: BT474 (human breast carcinoma); experiment: In vitro tumor cell proliferation assay (Cell Titer-Glo luminescent cell viability), BT474; format: cell-based; conditions: BT-474, 72 h, BT474 cells, 72 hours of drug exposure, ATP luminescence readout, read-out: IC50, anti-proliferative activity (inhibition of cell proliferation)
Procedure, shortened: (§1)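 IC50 values reflect ATP-based luminescence (CellTiter-Glo) after 72 h compound exposure at 37°C. Both lines, A431 and BT474, were plated in RPMI with 10% FBS and received serial dilutions ranging from 100 μM to 64 pM final at 0.1% DMSO.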

[2] = system: A431 cells (human epidermoid carcinoma); experiment: In vitro tumor cell proliferation assay (Cell Titer-Glo luminescent cell viability), A431; format: cell-based; conditions: A-431, 72 h, 72 hours of drug exposure, ATP luminescence readout, read-out: IC50, anti-proliferative activity (inhibition of cell proliferation)
Procedure, shortened: as §1

Row | IC50 [1] | IC50 [2] | SMILES
1 | ≤ 1 µM | ≤ 50 µM | O=C(Cn1cc2c(n1)CCc1c-2sc2ncnc(Nc3ccc(OCc4cccc(F)c4)c(Cl)c3)c12)NCCN1CCOCC1 [Example 189, 2-[6-({3-chloro-4-[(3-fluorobenzyl)oxy]phenyl}amino)-4,5-dihydro-2H-pyrimido[5′,4′:4,5]thieno[2,3-e]indazol-2-yl]-N-(2-morpholin-4-ylethyl)acetamide]
2 | ≤ 1 µM | ≤ 50 µM | CCOC(=O)Cn1ncc2c1CCc1c-2sc2ncnc(Nc3ccc(OCc4cccc(F)c4)c(Cl)c3)c12 [Example 190, ethyl [6-({3-chloro-4-[(3-fluorobenzyl)oxy]phenyl}amino)-4,5-dihydro-3H-pyrimido[5′,4′:4,5]thieno[2,3-e]indazol-3-yl]acetate]
3 | ≤ 50 µM | ≤ 50 µM | O=C(O)Cn1ncc2c1CCc1c-2sc2ncnc(Nc3ccc(OCc4cccc(F)c4)c(Cl)c3)c12 [Example 191, [6-({3-chloro-4-[(3-fluorobenzyl)oxy]phenyl}amino)-4,5-dihydro-3H-pyrimido[5′,4′:4,5]thieno[2,3-e]indazol-3-yl]acetic acid]
4 | ≤ 5 µM | ≤ 50 µM | CN(C)c1ccc(NC(=O)Cn2ncc3c2CCc2c-3sc3ncnc(Nc4ccc(OCc5cccc(F)c5)c(Cl)c4)c23)cc1 [Example 192, 2-[6-({3-chloro-4-[(3-fluorobenzyl)oxy]phenyl}amino)-4,5-dihydro-3H-pyrimido[5′,4′:4,5]thieno[2,3-e]indazol-3-yl]-N-[4-(dimethylamino)phenyl]acetamide]
5 | ≤ 1 µM | ≤ 50 µM | CN(C)CCNC(=O)Cn1ncc2c1CCc1c-2sc2ncnc(Nc3ccc(OCc4cccc(F)c4)c(Cl)c3)c12 [Example 193, 2-[6-({3-chloro-4-[(3-fluorobenzyl)oxy]phenyl}amino)-4,5-dihydro-3H-pyrimido[5′,4′:4,5]thieno[2,3-e]indazol-3-yl]-N-[2-(dimethylamino)ethyl]acetamide]
6 | ≤ 1 µM | ≤ 50 µM | O=C(Cn1ncc2c1CCc1c-2sc2ncnc(Nc3ccc(OCc4cccc(F)c4)c(Cl)c3)c12)Nc1ccccn1 [Example 195, 2-[6-({3-chloro-4-[(3-fluorobenzyl)oxy]phenyl}amino)-4,5-dihydro-3H-pyrimido[5′,4′:4,5]thieno[2,3-e]indazol-3-yl]-N-pyridin-2-ylacetamide]
7 | ≤ 1 µM | ≤ 50 µM | CNC(=O)Cn1ncc2c1CCc1c-2sc2ncnc(Nc3ccc(OCc4cccc(F)c4)c(Cl)c3)c12 [Example 196, 2-[6-({3-chloro-4-[(3-fluorobenzyl)oxy]phenyl}amino)-4,5-dihydro-3H-pyrimido[5′,4′:4,5]thieno[2,3-e]indazol-3-yl]-N-methylacetamide]
8 | ≤ 1 µM | ≤ 50 µM | O=C(Cn1ncc2c1CCc1c-2sc2ncnc(Nc3ccc(OCc4cccc(F)c4)c(Cl)c3)c12)NCCN1CCOCC1 [Example 197, 2-[6-({3-chloro-4-[(3-fluorobenzyl)oxy]phenyl}amino)-4,5-dihydro-3H-pyrimido[5′,4′:4,5]thieno[2,3-e]indazol-3-yl]-N-(2-morpholin-4-ylethyl)acetamide]
9 | ≤ 1 µM | ≤ 50 µM | CCOC(=O)N1CCN(C(=O)Cn2ncc3c2CCc2c-3sc3ncnc(Nc4ccc(OCc5cccc(F)c5)c(Cl)c4)c23)CC1 [Example 198, ethyl 4-{[6-({3-chloro-4-[(3-fluorobenzyl)oxy]phenyl}amino)-4,5-dihydro-3H-pyrimido[5′,4′:4,5]thieno[2,3-e]indazol-3-yl]acetyl}piperazine-1-carboxylate]
10 | ≤ 1 µM | ≤ 50 µM | O=C(Cn1ncc2c1CCc1c-2sc2ncnc(Nc3ccc(OCc4cccc(F)c4)c(Cl)c3)c12)N1CCOCC1 [Example 199, N-{3-chloro-4-[(3-fluorobenzyl)oxy]phenyl}-3-(2-morpholin-4-yl-2-oxoethyl)-4,5-dihydro-3H-pyrimido[5′,4′:4,5]thieno[2,3-e]indazol-6-amine]
11 | ≤ 1 µM | ≤ 50 µM | O=C(Cn1ncc2c1CCc1c-2sc2ncnc(Nc3ccc(OCc4cccc(F)c4)c(Cl)c3)c12)NCCN1CCNCC1 [Example 200, 2-[6-({3-chloro-4-[(3-fluorobenzyl)oxy]phenyl}amino)-4,5-dihydro-3H-pyrimido[5′,4′:4,5]thieno[2,3-e]indazol-3-yl]-N-(2-piperazin-1-ylethyl)acetamide]
12 | ≤ 1 µM | ≤ 5 µM | O=C(Cn1ncc2c1CCc1c-2sc2ncnc(Nc3ccc(OCc4cccc(F)c4)c(Cl)c3)c12)N1CCNCC1 [Example 201, N-{3-chloro-4-[(3-fluorobenzyl)oxy]phenyl}-3-(2-oxo-2-piperazin-1-ylethyl)-4,5-dihydro-3H-pyrimido[5′,4′:4,5]thieno[2,3-e]indazol-6-amine]
13 | ≤ 1 µM | ≤ 5 µM | CCN1CCN(C(=O)Cn2ncc3c2CCc2c-3sc3ncnc(Nc4ccc(OCc5cccc(F)c5)c(Cl)c4)c23)CC1 [Example 202, N-{3-chloro-4-[(3-fluorobenzyl)oxy]phenyl}-3-[2-(4-ethylpiperazin-1-yl)-2-oxoethyl]-4,5-dihydro-3H-pyrimido[5′,4′:4,5]thieno[2,3-e]indazol-6-amine]
14 | ≤ 1 µM | ≤ 50 µM | COCCN1CCN(C(=O)Cn2ncc3c2CCc2c-3sc3ncnc(Nc4ccc(OCc5cccc(F)c5)c(Cl)c4)c23)CC1 [Example 203, N-{3-chloro-4-[(3-fluorobenzyl)oxy]phenyl}-3-{2-[4-(2-methoxyethyl)piperazin-1-yl]-2-oxoethyl}-4,5-dihydro-3H-pyrimido[5′,4′:4,5]thieno[2,3-e]indazol-6-amine]
15 | ≤ 1 µM | ≤ 50 µM | CS(=O)(=O)CCNC(=O)Cn1ncc2c1CCc1c-2sc2ncnc(Nc3ccc(OCc4cccc(F)c4)c(Cl)c3)c12 [Example 204, 2-[6-({3-chloro-4-[(3-fluorobenzyl)oxy]phenyl}amino)-4,5-dihydro-3H-pyrimido[5′,4′:4,5]thieno[2,3-e]indazol-3-yl]-N-[2-(methylsulfonyl)ethyl]acetamide]
16 | ≤ 1 µM | ≤ 5 µM | CN1CCN(C(=O)Cn2ncc3c2CCc2c-3sc3ncnc(Nc4ccc(OCc5cccc(F)c5)c(Cl)c4)c23)CC1 [Example 205, N-{3-chloro-4-[(3-fluorobenzyl)oxy]phenyl}-3-[2-(4-methylpiperazin-1-yl)-2-oxoethyl]-4,5-dihydro-3H-pyrimido[5′,4′:4,5]thieno[2,3-e]indazol-6-amine]
17 | ≤ 1 µM | ≤ 5 µM | O=C(Cn1ncc2c1CCc1c-2sc2ncnc(Nc3ccc(OCc4cccc(F)c4)c(Cl)c3)c12)N1CC[C@@H](O)C1 [Example 206, (3R)-1-{[6-({3-chloro-4-[(3-fluorobenzyl)oxy]phenyl}amino)-4,5-dihydro-3H-pyrimido[5′,4′:4,5]thieno[2,3-e]indazol-3-yl]acetyl}pyrrolidin-3-ol]
18 | ≤ 1 µM | ≤ 50 µM | COCCNC(=O)Cn1ncc2c1CCc1c-2sc2ncnc(Nc3ccc(OCc4cccc(F)c4)c(Cl)c3)c12 [Example 207, 2-[6-({3-chloro-4-[(3-fluorobenzyl)oxy]phenyl}amino)-4,5-dihydro-3H-pyrimido[5′,4′:4,5]thieno[2,3-e]indazol-3-yl]-N-(2-methoxyethyl)acetamide]
19 | ≤ 1 µM | ≤ 50 µM | O=C(Cn1ncc2c1CCc1c-2sc2ncnc(Nc3ccc(OCc4cccc(F)c4)c(Cl)c3)c12)NCCO [Example 209, 2-[6-({3-chloro-4-[(3-fluorobenzyl)oxy]phenyl}amino)-4,5-dihydro-3H-pyrimido[5′,4′:4,5]thieno[2,3-e]indazol-3-yl]-N-(2-hydroxyethyl]acetamide]
20 | ≤ 1 µM | ≤ 5 µM | O=C(Cn1ncc2c1CCc1c-2sc2ncnc(Nc3ccc(OCc4cccc(F)c4)c(Cl)c3)c12)Nc1cccnc1 [Example 210, 2-[6-({3-chloro-4-[(3-fluorobenzyl)oxy]phenyl}amino)-4,5-dihydro-3H-pyrimido[5′,4′:4,5]thieno[2,3-e]indazol-3-yl]-N-pyridin-3-ylacetamide]
21 | ≤ 1 µM | ≤ 50 µM | O=C(Cn1ncc2c1CCc1c-2sc2ncnc(Nc3ccc(OCc4cccc(F)c4)c(Cl)c3)c12)N(CCO)CCO [Example 212, 2-[6-({3-chloro-4-[(3-fluorobenzyl)oxy]phenyl}amino)-4,5-dihydro-3H-pyrimido[5′,4′:4,5]thieno[2,3-e]indazol-3-yl]-N,N-bis(2-hydroxyethyl)acetamide]
22 | ≤ 1 µM | ≤ 5 µM | O=C(Cn1ncc2c1CCc1c-2sc2ncnc(Nc3ccc(OCc4cccc(F)c4)c(Cl)c3)c12)N1CCC(O)CC1 [Example 213, 1-{[6-({3-chloro-4-[(3-fluorobenzyl)oxy]phenyl}amino)-4,5-dihydro-3H-pyrimido[5′,4′:4,5]thieno[2,3-e]indazol-3-yl]acetyl}piperidin-4-ol]
23 | ≤ 1 µM | ≤ 5 µM | O=C(Cn1ncc2c1CCc1c-2sc2ncnc(Nc3ccc(OCc4cccc(F)c4)c(Cl)c3)c12)N1CC[C@H](O)C1 [Example 214, 1-{[6-({3-chloro-4-{(3-fluorobenzyl)oxy]phenyl}amino)-4,5-dihydro-3H-pyrimido[5′,4′:4,5]thieno[2,3-e]indazol-3-yl]acetyl}pyrrolidin-3-ol]
24 | ≤ 1 µM | ≤ 5 µM | CN(C)C1CCN(C(=O)Cn2ncc3c2CCc2c-3sc3ncnc(Nc4ccc(OCc5cccc(F)c5)c(Cl)c4)c23)C1 (centres unmarked) [Example 215, N-{3-chloro-4-[(3-fluorobenzyl)oxy]phenyl}-3-{2-[3-(dimethylamino)pyrrolidin-1-yl]-2-oxoethyl}-4,5-dihydro-3H-pyrimido[5′,4′:4,5]thieno[2,3-e]indazol-6-amine]
25 | ≤ 50 µM | ≤ 50 µM | CC(C)(C)OC(=O)N1CCC(n2cc3c(n2)CCc2c-3sc3ncnc(Nc4ccc(OCc5cccc(F)c5)c(Cl)c4)c23)CC1 [Example 216, tert-butyl 4-[6-({3-chloro-4-[(3-fluorobenzyl)oxy]phenyl}amino)-4,5-dihydro-2H-pyrimido[5′,4′:4,5]thieno[2,3-e]indazol-2-yl]piperidine-1-carboxylate]
